Data: publication PMC8037142, “Design, Synthesis, Molecular Modeling and Antitumor Evaluation of Novel Indolyl-Pyrimidine Derivatives with EGFR Inhibitory Activity” (Molecules, 2021)
Like-named read-outs stand apart in the source and are kept apart here. Each block holds one compound with its values, some of them ahead of it.

Assays:
[1] = Resazurin Cell Growth Inhibition Assay, WI38 normal cells; format: cell-based; conditions: human, WI38 normal lung fibroblast cells, WI-38 normal cells, mean ± SD of three experiments, read-out: Cytotoxic Activity IC50
Experimental: (§1) Compounds 1–4 were assessed for their in vitro cytotoxic activity against three human cell lines i.e., breast (MCF-7), liver (HepG2), colon (HCT-116) cancer cell lines as well as in lung fibroblast (WI38) normal cell line using the Resazurin Cell Growth Inhibition Assay. Both erlotinib and 5-Fluorouracil (5-FU) were used as reference drugs. Concentrations of the tested compounds that give about 50% inhibition of cell viability (IC50, mean of triplicate) in µM were obtained. […] However, if replaced by a hydrazone substituent, a more prominent efficacy toward the three cancer cell lines was observed. […] The most promising in vitro antiproliferative activity was obtained when the hydrazone is bearing electron-withdrawal groups i.e., 4-chlorobenzylidene moiety (compound 3f), 3,4-dichloro benzylidene moiety (compound 3g) and 4-fluorobenzylidene moiety (compound 3h) compared to the standard treatment (Table 1, Figure 5). The inhibitory activity of compounds was reduced when the hydrazone group is bearing electron donating groups i.e., 4-methyl group (compound 3b), 2-methoxy group (compound 3c), 4-hydroxy (compound 3d) and 4-dimethylamino group (compound 3e). The trend of antiproliferative activity of compounds […] against all tested cell lines has the following descending order: (3g > 3h >3f >3a >3b > 3c > 3d > 3e). […]. […] This is mainly because this compound has the highest lipophilicity as well as less electron density as it has 2-Cl atoms (more electronegativity) on the indolyl pyrimidine-thiazolidinone.
(§2) In vitro cytotoxicity was measured according to the Resazurin Cell Growth Inhibition Assay Alamar Blue or Resazurin (Promega, Mannheim, Germany) reduction assay was used to assess the cytotoxicity of the studied samples. The assay tests cellular viability and mitochondrial function. Briefly, adherent cells were grown in tissue culture flasks, and then harvested by treating the flasks with 0.025% trypsin and 0.25 mM EDTA for 5 min. Once detached, cells were washed, counted, and an aliquot (5 × 10^3 cells) were placed in each well of a 96-well cell culture plate in a total volume of […]. Cells were allowed to attach overnight and then treated with samples. […]. Each assay was performed as triplicates. […] […]. The viability was compared based on a comparison with untreated cells. IC50 (on cancer cells) were the concentration of sample required to inhibit 50% of the cell proliferation and were calculated from a calibration curve by a linear regression using Microsoft Excel.

[2] = tested on: MCF-7 breast cancer cell line; test: Resazurin Cell Growth Inhibition Assay, MCF-7; format: cell-based; conditions: Homo sapiens, MCF7; MCF-7, 48 h, mean ± SD of three experiments; read-out: Cytotoxic Activity IC50
Experimental: as §1, §2

[3] = tested on: HCT-116 colon cancer cell line; test: Resazurin Cell Growth Inhibition Assay, HCT-116; format: cell-based, human
Experimental: as §1, §2

[4] = tested on: HepG2 liver cancer cell line; test: Resazurin Cell Growth Inhibition Assay, HepG2; format: cell-based, human
Experimental: as §1, §2

[5] = tested on: Ehrlich ascites carcinoma (EAC); test: In vivo antitumor assay in EAC tumor bearing mice; conditions: 0.5 mg/mouse for nine days; for Tumor Volume: ascitic fluid; for MST (mean survival time): mean of two experiments; for Viable Tumor Cell Count: trypan blue
Experimental: The antitumor activity of these compounds was assessed by the change in tumor volume, viable cell count, mean survival time (MST) and % increase in lifespan (% ILS) of the EAC tumor bearing mice and 5-FU (standard treatment). The mean survival time (MST) and % increase in lifespan (% ILS) of EAC tumor bearing mice, as well as the influence of these compounds on viable tumor cells and the tumor volume, are shown in Table 2. The hematological profile of these mice was also assessed in comparison with the standard treatment with 5-FU, and no obvious effect on RBCs or WBCs was observed. […] MST = (day of first death + day of last death)/2 %ILS = [(MST of treated group/MST of control group) − 1] × 100 […]
In vivo antitumor evaluation was carried out as previously reported (see Supplementary Materials).
2. Biological Evaluation Details: a) In vivo antitumor assay: Materials . Adult Swiss male mice (weighing 20 -25 g) were obtained from the Department of Pharmacology, Faculty of Pharmacy, Mansoura University, Egypt.
They were kept in microlon boxes at temperature 25 ± 2 °C with a regular 12 hrs light/dark cycle. In addition, food and water were available. EAC cells (procured from NCI, Cairo, Egypt) were harvested and prepared, then their total number was counted.
Procedure. 7 Groups of mice ( n = 4) were used.
Group 1: Negative control (no EAC cells) - received normal saline.
Group 2: Positive control (EAC cells) - received normal saline.
Group 3: EAC cells - treated with compound 3g (0.5 mg/mouse).
Group 4: EAC cells - treated with compound 4f (0.5 mg/mouse).
Group 5: EAC cells - treated with compound 4g (0.5 mg/mouse).
Group 6: EAC cells - treated with compound 4h (0.5 mg/mouse).
Group 7: EAC cells - treated with 5-fluorouracil (0.5 mg/mouse).
2 x 10^6 EAC cells were injected intraperitoneally in each mouse (groups 2-7). After […]
for nine days, then blood samples were withdrawn for assessment of blood count.
Determination of tumor volume
The ascetic fluid was gathered from the peritoneal cavity and its volume was determined. It was then centrifuged, and the packed tumor cell volume was measured.
Determination of viable tumor cell count
100 μL Sample of EAC cells (from three mice per group) was utilized and diluted twenty times with saline. Cells were stained with trypan blue, viable cells are not stained, while the dead ones are stained. The number of viable cells was calculated.

EGFR kinase = EGFR kinase (Homo sapiens, UniProt P00533); test: In vitro EGFR inhibitory assay (EnzyChrom Kinase Assay Kit EKIN-400); conditions: for inhibition at 10 µM: read-out: % Inhibition of EGFR
Experimental: A first-generation EGFR inhibitor, erlotinib, was used as standard treatment. […] IC50 for these compounds was determined. […] In addition, 20 µL reaction mixture containing the EGFR kinase, ATP, and substrate in the provided assay buffer. Set up a blank control that contains ATP and substrate but no enzyme. Incubate at desired temperature for 30 min. Prepare 900 µL 10µM (adenosine diphosphate) ADP premix by mixing 3 µL of 3 mM standard and 897 µL distilled water. Transfer 20 µL standards into separate wells of the plate. Prepare enough working reagent for each well. Add 40 µL working reagent to each assay well. Tap plate to mix. Incubate at room temperature for 10 min. Read fluorescence intensity at λexc = 530nm and λem = 590 nm, and then calculate kinase activity.

[6] = Homo sapiens, HCT-116, 48 h, mean ± SD of three experiments, read-out: Cytotoxic Activity IC50
[7] = Homo sapiens, HepG2, 48 h, mean ± SD of three experiments, read-out: Cytotoxic Activity IC50

EGFR kinase, sequence (P00533 25-1210): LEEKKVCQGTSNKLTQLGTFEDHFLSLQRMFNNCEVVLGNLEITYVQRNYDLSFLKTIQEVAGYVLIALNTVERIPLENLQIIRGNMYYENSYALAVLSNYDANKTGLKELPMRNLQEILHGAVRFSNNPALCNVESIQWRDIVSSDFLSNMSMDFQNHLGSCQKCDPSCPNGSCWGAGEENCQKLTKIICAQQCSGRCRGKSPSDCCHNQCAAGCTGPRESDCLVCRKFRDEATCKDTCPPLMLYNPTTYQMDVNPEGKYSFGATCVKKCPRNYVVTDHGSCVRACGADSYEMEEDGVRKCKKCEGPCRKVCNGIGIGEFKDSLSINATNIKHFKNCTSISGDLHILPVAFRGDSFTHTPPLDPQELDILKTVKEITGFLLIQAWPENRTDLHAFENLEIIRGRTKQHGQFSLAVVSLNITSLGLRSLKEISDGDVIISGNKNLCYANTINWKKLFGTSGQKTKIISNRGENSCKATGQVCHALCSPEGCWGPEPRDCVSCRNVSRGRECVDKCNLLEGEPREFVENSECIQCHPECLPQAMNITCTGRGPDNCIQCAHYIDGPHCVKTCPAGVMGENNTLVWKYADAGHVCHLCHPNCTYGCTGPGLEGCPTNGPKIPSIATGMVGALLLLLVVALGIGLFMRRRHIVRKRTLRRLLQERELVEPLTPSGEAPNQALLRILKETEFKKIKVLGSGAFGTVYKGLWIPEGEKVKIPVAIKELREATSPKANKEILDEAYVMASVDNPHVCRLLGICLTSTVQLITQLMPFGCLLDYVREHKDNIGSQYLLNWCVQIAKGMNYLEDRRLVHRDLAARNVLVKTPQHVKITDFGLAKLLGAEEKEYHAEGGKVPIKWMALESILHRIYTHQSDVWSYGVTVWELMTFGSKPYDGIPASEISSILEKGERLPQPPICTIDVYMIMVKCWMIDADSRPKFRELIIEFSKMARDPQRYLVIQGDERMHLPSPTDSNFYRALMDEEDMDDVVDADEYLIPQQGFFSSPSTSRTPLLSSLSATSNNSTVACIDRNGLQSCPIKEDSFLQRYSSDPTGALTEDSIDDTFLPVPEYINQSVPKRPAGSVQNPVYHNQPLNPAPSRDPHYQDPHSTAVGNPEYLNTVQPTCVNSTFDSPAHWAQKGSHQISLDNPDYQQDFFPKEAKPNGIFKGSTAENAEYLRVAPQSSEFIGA

Compound: CC1=C(C(=O)N/N=C/c2ccccc2)C(c2c[nH]c3ccccc23)NC(=S)N1 (stereo not drawn) [Compound 3a]
IC50 at 48 h [1]: 38.2 ± 2.1 µM
IC50 [2]: 17 ± 1.8 µM
IC50 [3, 6]: 15.2 ± 2.32 µM
IC50 [4, 7]: 19.2 ± 1.5 µM

Compound: CC1=C(C(=O)N/N=C/c2ccccc2O)C(c2c[nH]c3ccccc23)NC(=S)N1 (stereo not drawn) [Compound 3d]
IC50 at 48 h [1]: 35.3 ± 2.42 µM
IC50 [2]: 19.2 ± 2.35 µM
IC50 [3, 6]: 16.6 ± 1.27 µM
IC50 [4, 7]: 20.2 ± 2.33 µM

Compound: CC1=C(C(=O)N/N=C/c2ccc(Cl)cc2)C(c2c[nH]c3ccccc23)NC(=S)N1 (stereo not drawn) [Compound 3f]
IC50 at 48 h [1]: 29.8 ± 1.51 µM
IC50 [2]: 10.7 ± 2.3 µM
IC50 [3, 6]: 10.2 ± 1.18 µM
IC50 [4, 7]: 10.6 ± 2.32 µM

Compound: CC1=C(C(=O)NN=Cc2ccc(Cl)c(Cl)c2)C(c2c[nH]c3ccccc23)NC(=S)N1 (stereo not drawn) [Compound 3g, 4-(1H-indol-3-yl)-6-methyl-2-thioxo-1,2,3,4-tetrahydropyrimidine-5-carboxylic acid (3,4-dichloro-benzylidene)-hydrazide]
IC50 at 48 h [1]: 30 ± 3.72 µM
IC50 [2]: 9 ± 2.4 µM
IC50 [3, 6]: 8.5 ± 2.3 µM
IC50 [4, 7]: 10 ± 2.46 µM
Tumor Volume [5]: 2.97 mL
MST (mean survival time) [5]: 30 days
Viable Tumor Cell Count [5]: 48.00 10^6/mL
IC50 (EGFR kinase): 0.5 ± 0.04 µM
inhibition at 10 µM (EGFR kinase): 53%

Compound: CC1=C(C(=O)N/N=C/c2ccc(F)cc2)C(c2c[nH]c3ccccc23)NC(=S)N1 (stereo not drawn) [Compound 3h]
IC50 at 48 h [1]: 28.1 ± 4.22 µM
IC50 [2]: 10.2 ± 2.01 µM
IC50 [3, 6]: 10.1 ± 2.45 µM
IC50 [4, 7]: 10.4 ± 2.08 µM

Compound: CC1=C(C(=O)NN2C(=O)CSC2c2ccc(Cl)cc2)C(c2c[nH]c3ccccc23)NC(=S)N1 (stereo not drawn) [Compound 4f, N-(2-(4-chlorophenyl)-4-oxothiazolidin-3-yl)-4-(1H-indol-3-yl)-6-methyl-2-thioxo-1,2,3,4-tetrahydropyrimidine-5-carboxamide]
IC50 at 48 h [1]: 19.3 ± 5.87 µM
IC50 [2]: 8.01 ± 1.83 µM
IC50 [3, 6]: 8.02 ± 0.26 µM
IC50 [4, 7]: 8.9 ± 1.73 µM
Tumor Volume [5]: 2.50 mL
MST (mean survival time) [5]: 37 days
Viable Tumor Cell Count [5]: 40.70 10^6/mL
IC50 (EGFR kinase): 0.38 ± 0.02 µM
inhibition at 10 µM (EGFR kinase): 71%

Compound: O=c1[nH]cc(F)c(=O)[nH]1 [Compound 5-FU, 5-Fluorouracil, reference compound]
IC50 at 48 h [1]: 5.7 ± 1.5 µM
IC50 [2]: 5.38 ± 0.24 µM
IC50 ([3]; Homo sapiens; HCT-116, 48 h, mean ± SD of three experiments; read-out: Cytotoxic Activity IC50): 7.88 ± 0.2 µM
IC50 ([4]; Homo sapiens; HepG2, 48 h, mean ± SD of three experiments; read-out: Cytotoxic Activity IC50): 5.34 ± 0.4 µM
Tumor Volume [5]: 0.80 mL
MST (mean survival time) [5]: 53.0 days
Viable Tumor Cell Count [5]: 19.07 10^6/mL

Compound: C#Cc1cccc(Nc2ncnc3cc(OCCOC)c(OCCOC)cc23)c1 [erlotinib, reference compound]
IC50 at 48 h [1]: 22.5 ± 0.65 µM
IC50 [2]: 6.65 ± 0.82 µM
IC50 [3, 6]: 7.49 ± 0.65 µM

Continued, in another order:

melting point: 240 to 242 °C
Compound: CC1=C(C(=O)NN=Cc2ccc(C)cc2)C(c2c[nH]c3ccccc23)NC(=S)N1 (stereo not drawn) [Compound 3b, 4-(1H-indol-3-yl)-6-methyl-2-thioxo-1,2,3,4-tetrahydropyrimidine-5-carboxylic acid (4-methyl-benzylidene)-hydrazide]
IC50 at 48 h [1]: 39.1 ± 1.3 µM
IC50 [2]: 18.5 ± 2.11 µM
IC50 [3, 6]: 15.6 ± 3.15 µM
IC50 [4, 7]: 19.4 ± 2.19 µM

melting point: 220 to 222 °C
Compound: COc1ccccc1/C=N/NC(=O)C1=C(C)NC(=S)NC1c1c[nH]c2ccccc12 (stereo not drawn) [Compound 3c, 4-(1H-indol-3-yl)-6-methyl-2-thioxo-1,2,3,4-tetrahydropyrimidine-5-carboxylic acid (2-methoy-benzylidene)-hydrazide]
IC50 at 48 h [1]: 37.4 ± 1.49 µM
IC50 [2]: 18.9 ± 2 µM
IC50 [3, 6]: 16.3 ± 4.16 µM
IC50 [4, 7]: 19.9 ± 2.06 µM

melting point: 180 to 182 °C
Compound: CC1=C(C(=O)NN=Cc2ccc(N(C)C)cc2)C(c2c[nH]c3ccccc23)NC(=S)N1 (stereo not drawn) [Compound 3e, 4-(1H-indol-3-yl)-6-methyl-2-thioxo-1,2,3,4-tetrahydropyrimidine-5-carboxylic acid (4-dimethylamino-benzylidene)-hydrazide]
IC50 at 48 h [1]: 40 ± 2.31 µM
IC50 [2]: 19.8 ± 2.7 µM
IC50 [3, 6]: 16.2 ± 1.15 µM
IC50 [4, 7]: 20.4 ± 2.3 µM

melting point: 270 to 272 °C
Compound: CC1=C(C(=O)NN2C(=O)CSC2c2ccccc2)C(c2c[nH]c3ccccc23)NC(=S)N1 (stereo not drawn) [Compound 4a, 4-(1H-indol-3-yl)-6-methyl-N-(4-oxo-2-phenylthiazolidin-3-yl)-2-thioxo-1,2,3,4-tetrahydropyrimidine-5-carboxamide]
IC50 at 48 h [1]: 38 ± 5.51 µM
IC50 [2]: 11.2 ± 4.31 µM
IC50 [3, 6]: 12.3 ± 2.17 µM
IC50 [4, 7]: 17 ± 4.3 µM

melting point: 220 to 222 °C
Compound: CC1=C(C(=O)NN2C(=O)CSC2c2ccc(C)cc2)C(c2c[nH]c3ccccc23)NC(=S)N1 (stereo not drawn) [Compound 4b, 4-(1H-indol-3-yl)-6-methyl-N-(4-oxo-2-(p-tolyl)thiazolidin-3-yl)-2-thioxo-1,2,3,4-tetrahydropyrimidine-5-carboxamide]
IC50 at 48 h [1]: 39.8 ± 4.51 µM
IC50 [2]: 11.6 ± 3.22 µM
IC50 [3, 6]: 12.6 ± 1.05 µM
IC50 [4, 7]: 18 ± 3.2 µM

melting point: 200 to 202 °C
Compound: COc1ccccc1C1SCC(=O)N1NC(=O)C1=C(C)NC(=S)NC1c1c[nH]c2ccccc12 (stereo not drawn) [Compound 4c, 4-(1H-indol-3-yl)-N-(2-(2-methoxyphenyl)-4-oxothiazolidin-3-yl)-6-methyl-2-thioxo-1,2,3,4-tetrahydropyrimidine-5-carboxamide]
IC50 at 48 h [1]: 29.5 ± 4.02 µM
IC50 [2]: 12.3 ± 4.08 µM
IC50 [3, 6]: 13.2 ± 1.03 µM
IC50 [4, 7]: 18.5 ± 4.38 µM

melting point: 180 to 182 °C
Compound: CC1=C(C(=O)NN2C(=O)CSC2c2ccccc2O)C(c2c[nH]c3ccccc23)NC(=S)N1 (stereo not drawn) [Compound 4d, N-(2-(2-hydroxyphenyl)-4-oxothiazolidin-3-yl)-4-(1H-indol-3-yl)-6-methyl-2-thioxo-1,2,3,4-tetrahydropyrimidine-5-carboxamide]
IC50 at 48 h [1]: 29.9 ± 3.63 µM
IC50 [2]: 12.6 ± 1.7 µM
IC50 [3, 6]: 13.6 ± 1.09 µM
IC50 [4, 7]: 18.7 ± 1.2 µM

melting point: 170 to 172 °C
Compound: CC1=C(C(=O)NN2C(=O)CSC2c2ccc(N(C)C)cc2)C(c2c[nH]c3ccccc23)NC(=S)N1 (stereo not drawn) [Compound 4e, N-(2-(4-(dimethylamino)phenyl)-4-oxothiazolidin-3-yl)-4-(1H-indol-3-yl)-6-methyl-2-thioxo-1,2,3,4-tetrahydropyrimidine-5-carboxamide]
IC50 at 48 h [1]: 20.2 ± 5.52 µM
IC50 [2]: 14.2 ± 0.74 µM
IC50 [3, 6]: 13.7 ± 0.55 µM
IC50 [4, 7]: 18.6 ± 0.94 µM
